Reference: article PMC5471454, “Integrative approach for the analysis of the proteome-wide response to bismuth drugs in Helicobacter pylori” (Chemical Science, 2017)

Biological target: T1, HpDnaK (Hsp70) (Helicobacter pylori, UniProt P55994)
T1 construct: gene dnaK; overexpressed and purified full-length protein; native protein in cells for CETSA
T1 sequence (P55994 2-620): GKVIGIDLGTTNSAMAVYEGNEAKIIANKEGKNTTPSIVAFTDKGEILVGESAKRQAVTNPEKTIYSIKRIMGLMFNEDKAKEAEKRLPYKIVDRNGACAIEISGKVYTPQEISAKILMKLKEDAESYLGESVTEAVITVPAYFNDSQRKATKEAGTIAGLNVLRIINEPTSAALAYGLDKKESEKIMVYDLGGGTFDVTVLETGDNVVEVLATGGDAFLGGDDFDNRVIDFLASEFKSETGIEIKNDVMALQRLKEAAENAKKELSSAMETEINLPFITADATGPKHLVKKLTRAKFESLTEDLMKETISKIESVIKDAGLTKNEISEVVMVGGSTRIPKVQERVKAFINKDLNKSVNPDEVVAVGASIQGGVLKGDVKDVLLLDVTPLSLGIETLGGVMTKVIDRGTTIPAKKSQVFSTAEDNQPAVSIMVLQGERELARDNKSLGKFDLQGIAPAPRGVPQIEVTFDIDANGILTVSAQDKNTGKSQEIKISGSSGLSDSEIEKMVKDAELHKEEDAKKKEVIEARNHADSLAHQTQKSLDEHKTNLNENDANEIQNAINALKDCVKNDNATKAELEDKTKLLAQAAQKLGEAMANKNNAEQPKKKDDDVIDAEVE
Experiment: ATPase assay, released phosphate
Type: biochemical
Conditions: no CBS; rate linear within 80 min

Structure (SMILES): Nc1ncnc2c1ncn2[C@@H]1O[C@H](COP(=O)(O)OP(=O)(O)OP(=O)(O)O)[C@@H](O)[C@H]1O [ATP]
- ATPase assay, released phosphate: rates of ATP hydrolysis measured by monitoring the amounts of released free phosphate
